Source: ChEMBL document CHEMBL1201862, “PubChem BioAssay data set” (2004)
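Exposure lasted 48 hours, with cells grown in 96-well plates and compounds tested at five concentrations. GI50 is the concentration that inhibits growth by half.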 Active and inactive are the calls of the source. Cut-off read from the data, not from the text of the source: active = GI50 up to about 1.1 µM and inactive = higher. Residues, ends and D or L forms follow the SMILES beside them. *: point of attachment. Cbz = O=C(OCc1ccccc1)*

Legend:
Assay in all cases: NCI-60 cell line screen, 48 h
A549 = tested on: A549
COLO 205 = tested on: COLO 205
HL-60 = tested on: HL-60
K562 = tested on: K562
LOX IMVI = tested on: LOX IMVI
MOLT-4 = tested on: MOLT-4
Malme-3M = tested on: Malme-3M
OVCAR-4 = tested on: OVCAR-4
RPMI-8226 = tested on: RPMI-8226
SF-295 = tested on: SF-295
SF-539 = tested on: SF-539
SK-MEL-5 = tested on: SK-MEL-5
SNB-19 = tested on: SNB-19
SW-620 = tested on: SW-620
UACC-62 = tested on: UACC-62
HCC 2998 = tested on: HCC 2998
HOP-92 = tested on: HOP-92
SK-OV-3 = tested on: SK-OV-3
UACC-257 = tested on: UACC-257

Measured: GI50

Nc1nc(-c2ccco2)cc(-c2ccc(CO)o2)n1
inactive: A549 > 100 µM | COLO 205 > 100 µM | HL-60 > 100 µM | K562 > 100 µM | LOX IMVI > 100 µM | MOLT-4 > 100 µM | Malme-3M > 100 µM | OVCAR-4 > 100 µM | RPMI-8226 41.4 µM | SF-295 > 100 µM | SF-539 > 100 µM | SK-MEL-5 > 100 µM | SNB-19 65.5 µM | SW-620 > 100 µM | UACC-62 > 100 µM

COc1ccc2oc(=O)c(-c3csc(C)n3)cc2c1
inactive: A549 > 100 µM | COLO 205 > 100 µM | HCC 2998 > 100 µM | HL-60 > 100 µM | HOP-92 19.5 µM | K562 > 100 µM | LOX IMVI > 100 µM | MOLT-4 > 100 µM | OVCAR-4 85.3 µM | RPMI-8226 > 100 µM | SF-295 18.6 µM | SF-539 22.2 µM | SK-MEL-5 > 100 µM | SK-OV-3 28.1 µM | SNB-19 28.8 µM | SW-620 > 100 µM | UACC-257 > 100 µM | UACC-62 22.9 µM

COc1ccc(/C=C2/CCS(=O)(=O)c3ccc(C)cc3C2=O)cc1OC
inactive: A549 25.9 µM | COLO 205 14.2 µM | HCC 2998 6.47 µM | HL-60 10.4 µM | HOP-92 2.36 µM | K562 24.8 µM | LOX IMVI 8.11 µM | MOLT-4 12.1 µM | OVCAR-4 11.3 µM | RPMI-8226 11.7 µM | SF-295 14.7 µM | SF-539 14.6 µM | SK-OV-3 21.6 µM | SNB-19 14.1 µM | SW-620 22.8 µM | UACC-257 11.9 µM | UACC-62 5.97 µM

O=C1C[C@@H]2[C@@H](c3ccccc3)[C@@H]3C(=O)c4ccccc4NC(=O)[C@H]3[C@]2(O)c2ccccc2N1
inactive: A549 > 100 µM | COLO 205 > 100 µM | HL-60 > 100 µM | K562 > 100 µM | LOX IMVI > 100 µM | MOLT-4 > 100 µM | Malme-3M > 100 µM | OVCAR-4 > 100 µM | RPMI-8226 > 100 µM | SF-295 > 100 µM | SK-MEL-5 > 100 µM | SNB-19 > 100 µM | SW-620 > 100 µM | UACC-62 > 100 µM

CCN(CC)CCNc1c(OC)cc(C)c2sc3ccccc3c(=O)c12
inactive: A549 4.31 µM | COLO 205 2.06 µM | HL-60 5.45 µM | HOP-92 16.9 µM | K562 1.71 µM | MOLT-4 2.31 µM | Malme-3M 2.13 µM | OVCAR-4 5.3 µM | RPMI-8226 1.3 µM | SF-295 3.85 µM | SF-539 10.6 µM | SK-MEL-5 1.91 µM | SK-OV-3 13.9 µM | SNB-19 12.7 µM | SW-620 5.35 µM | UACC-257 1.82 µM | UACC-62 1.79 µM

CC(Cc1ccccc1)N(C)Cc1nc(C2CCC([N+](=O)[O-])O2)no1 (stereo not given)
inactive: A549 12.1 µM | COLO 205 3.72 µM | HCC 2998 4.17 µM | HL-60 6.49 µM | HOP-92 21.3 µM | LOX IMVI 3.19 µM | MOLT-4 19.5 µM | Malme-3M 11.9 µM | OVCAR-4 8.47 µM | RPMI-8226 14.8 µM | SF-295 8.79 µM | SF-539 3.32 µM | SK-MEL-5 11.5 µM | SK-OV-3 24.5 µM | SNB-19 12.2 µM | SW-620 3.1 µM | UACC-257 7.31 µM | UACC-62 5.96 µM

CCCn1c(SCCSc2c3ccccc3c(-c3nc(F)nc(F)n3)n2CCC)c2ccccc2c1-c1nc(F)nc(F)n1
inactive: A549 > 100 µM | COLO 205 38 µM | HCC 2998 > 100 µM | HL-60 > 100 µM | HOP-92 > 100 µM | K562 > 100 µM | MOLT-4 > 100 µM | Malme-3M > 100 µM | OVCAR-4 > 100 µM | RPMI-8226 27.3 µM | SF-295 > 100 µM | SF-539 38.6 µM | SK-OV-3 > 100 µM | SNB-19 > 100 µM | SW-620 13.8 µM | UACC-257 > 100 µM | UACC-62 > 100 µM

COC(=O)[C@H](Cc1c[nH]c2ccccc12)NC(=O)OCC1OC(n2cc(C)c(=O)[nH]c2=O)CC1N=[N+]=[N-] (stereo not given in full)
inactive: A549 > 100 µM | COLO 205 > 100 µM | HCC 2998 > 100 µM | HL-60 > 100 µM | HOP-92 > 100 µM | K562 > 100 µM | LOX IMVI 98.6 µM | MOLT-4 33.6 µM | Malme-3M > 100 µM | OVCAR-4 > 100 µM | RPMI-8226 > 100 µM | SF-295 > 100 µM | SK-MEL-5 31.8 µM | SK-OV-3 > 100 µM | SNB-19 > 100 µM | SW-620 > 100 µM | UACC-257 62.5 µM | UACC-62 61.5 µM

N=C(N)c1ccc(/N=N/c2c(O)ccc3cc(O)ccc23)cc1
inactive: A549 > 100 µM | COLO 205 > 100 µM | HCC 2998 > 100 µM | HL-60 > 100 µM | HOP-92 > 100 µM | K562 > 100 µM | MOLT-4 > 100 µM | Malme-3M 56.2 µM | OVCAR-4 > 100 µM | RPMI-8226 > 100 µM | SF-295 > 100 µM | SF-539 > 100 µM | SK-MEL-5 > 100 µM | SK-OV-3 > 100 µM | SNB-19 > 100 µM | SW-620 > 100 µM | UACC-257 > 100 µM | UACC-62 > 100 µM

[N-]=[N+]=NC(CCl)c1cn([C@H]2C[C@H](O)[C@@H](CO)O2)c(=O)[nH]c1=O (stereo not given in full)
inactive: A549 > 100 µM | COLO 205 > 100 µM | HCC 2998 > 100 µM | HL-60 > 100 µM | HOP-92 > 100 µM | K562 > 100 µM | LOX IMVI > 100 µM | MOLT-4 > 100 µM | Malme-3M > 100 µM | RPMI-8226 > 100 µM | SF-295 > 100 µM | SF-539 > 100 µM | SK-MEL-5 > 100 µM | SK-OV-3 > 100 µM | SNB-19 > 100 µM | SW-620 > 100 µM | UACC-62 > 100 µM

CC(NC(=O)C(NC(=O)OCc1ccccc1)C(C)C)C(=O)NCC(=O)O (stereo not drawn) (Cbz-Val-Ala-Gly-OH; configuration not given here)
inactive: A549 > 100 µM | COLO 205 > 100 µM | HCC 2998 > 100 µM | HOP-92 > 100 µM | K562 > 100 µM | MOLT-4 > 100 µM | Malme-3M > 100 µM | RPMI-8226 > 100 µM | SF-295 > 100 µM | SF-539 > 100 µM | SK-MEL-5 > 100 µM | SK-OV-3 > 100 µM | SNB-19 > 100 µM | SW-620 > 100 µM | UACC-257 > 100 µM | UACC-62 > 100 µM
